According to patent US20030091585A1, “Vaccine composition containing a promoter peptide” (priority 2001, published 2003):

Columns and labels:
[1] = system: test mice (6-8-week-old athymic nu/nu on a BALB/c background); assay: Quantity of anti-E2 antibody (ELISA) in blood of mice injected with vaccine; assay type: in vivo; conditions: when used together with alum; E2 protein antigen
Description: 5 μg of E2 protein antigen obtained in Reference Example was dissolved in 150 μl of PBS (pH 7.2), and 7 μg of the peptide of sequence of SEQ ID NO: 1 synthesized using a conventional peptide synthesis method (Houghten, R. A. et al., Nature, 354, 84(1991)) was added thereto together with alum to obtain a vaccine.
The vaccine thus obtained was injected subcutaneously into test mice (6-8-week-old athymic nu/nu on a BALB/c background). After 5 weeks, a booster injection was carried out, and after another 2 weeks, blood samples were taken from the mice.
For comparison, three different vaccine compositions were also tested as above. These comparative controls were: a vaccine containing E2 protein and alum; a vaccine containing E2 protein and the peptide of sequence of SEQ ID NO: 1; and a vaccine containing alum and the peptide of sequence of SEQ ID NO: 1. The peptides used in this Example include the D-Met residue of SEQ ID NO: 1 having CONH2 substituted for the carboxyl group. […]
Thereafter, 80 μl/well of color former (ABSI (Chemicon®)) were added to each of the 96-wells of the plate, and they were incubated at room temperature for 20 minutes. After the reaction, the O.D. of each well was determined at the wavelength of 405 nm with an ELISA reader.

[2] = system: human B-lymphocyte cell line U266; conditions: cited from earlier work
[3] = system: monocytes, B-lymphocytes, and neutrophils; conditions: cited from earlier work
phospholipase C (PLC) = conditions: in B-lymphocytes; cited from earlier work
[4] = system: specific receptor protein in the cell membrane of the U266 cell line; conditions: cited from earlier work
human neutrophils = conditions: cited from earlier work
neutrophils = conditions: stimulated neutrophils; cited from earlier work

Trp Lys Tyr Met Val Met [peptide of SEQ ID NO: 1]
effect of promoting the vaccination efficiency [1]: remarkable synergistic effect | intracellular calcium [Ca2+]I release [2]: induces | activation of monocytes, B-lymphocytes, and neutrophils [3]: activates | activity of phospholipase C (PLC) (phospholipase C (PLC)): enhances | binding with receptor, activation of the cellular signal pathway [4]: binding with a specific receptor protein | chemotaxis (human neutrophils): induces chemotaxis | production of active oxygen species (neutrophils): increase
